Patent US6242494A, “Substituted β-amino acid inhibitors of methionine aminopeptidase-2” (Abbott Laboratories, priority 1999, dated 2001)
Counter-ions that a name gives are not always drawn. Like-named read-outs stand apart in the source and are kept apart here.

Molecular target: T1, methionine aminopeptidase-2 (MetAP2) (Homo sapiens, UniProt P50579)
T1 construct: made in house; host or cells: insect cells, baculovirus system (secreted, purified from culture supernatant)
Experiment: Inhibition of MetAP2 enzyme activity (96-well, Met-Ala-Ser substrate, L-amino acid oxidase/peroxidase/ortho-dianisidine, 450 nm)
Format: biochemical
Conditions: pH 7.4, Met-Ala-Ser substrate, 20 minutes
Protocol: The ability of compounds of the present invention to inhibit methionine aminopeptidase 2 was evaluated using the following assay.
Assays for MetAP2 enzyme activity and MetAP2 inhibition were performed in 96-well microtiter plates. Compounds to be tested for MetAP2 inhibition were dissolved in dimethyl-sulfoxide at 10 mM and diluted ten-fold in assay buffer ([…], pH 7.4, 100 mM NaCl). Ten microliters of solution of each compound to be tested for inhibition were introduced into each cell of the plate, with each compound being tested in triplicate.
The absorbence at 450 nanometers was measured every 20 seconds over a period of twenty minutes using an automaic plate reader (Molecular Devices, CA, USA). The Vmax in mOD/min, calculated for each well was used to represent MetAP2 activity. The IC50 for each inhibitor was obtained by plotting the remaining MetAP2 activity versus inhibitor concentration.

[1] = IC50, recombinant MetAP2 4 μg/mL

T1 sequence (P50579 whole entry): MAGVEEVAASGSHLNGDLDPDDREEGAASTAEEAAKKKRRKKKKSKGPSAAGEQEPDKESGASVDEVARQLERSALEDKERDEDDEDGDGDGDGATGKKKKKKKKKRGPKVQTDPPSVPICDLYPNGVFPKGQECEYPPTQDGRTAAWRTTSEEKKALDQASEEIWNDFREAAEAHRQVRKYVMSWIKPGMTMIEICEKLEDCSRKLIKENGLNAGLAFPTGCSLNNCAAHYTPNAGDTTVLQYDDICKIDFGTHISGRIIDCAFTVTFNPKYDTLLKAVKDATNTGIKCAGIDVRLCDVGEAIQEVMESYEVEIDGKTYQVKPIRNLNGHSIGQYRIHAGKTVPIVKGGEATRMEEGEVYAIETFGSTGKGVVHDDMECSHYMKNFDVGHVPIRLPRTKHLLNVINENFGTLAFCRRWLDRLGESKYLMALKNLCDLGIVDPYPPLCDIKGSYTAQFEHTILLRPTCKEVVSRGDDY

| Compound | IC50 [1] [nM] | other results |
| --- | --- | --- |
| (2RS,3R)-3-Amino-2-hydroxy-4-cyclohexyl)butanoyl-L-alanine Cyclopropyl Ester Hydrochloride [Example 92] | – | IC50 (recombinant MetAP2 4 μg/mL, read-out: IC50): 1400 nM |
| C[C@H](NC(=O)C(O)[C@H](N)CC1CCCCC1)C(=O)Nc1cc(-c2ccccc2)[nH]n1 (stereo partly drawn) [Example 68, ((2RS,3R)-3-amino-2-hydroxy-4-cyclohexyl)butanoyl-L-alanyl-(5-phenyl-pyrazole-3)amide hydrochloride] | 3800 | – |
| C[C@H](NC(=O)C(O)[C@H](N)CC1CCCCC1)C(=O)OCc1ccc(C(F)(F)F)cc1 (stereo partly drawn) [Example 95, (2RS,3R)-3-Amino-2-hydroxy-4-cyclohexyl)butanoyl-L-alanine 4-trifluoromethylbenzyl Ester Hydrochloride] | 5200 | – |
| N[C@H](CC1CCCCC1)C(O)C(=O)Nc1ccc(Cl)cc1Cl (mixture of isomers) [Example 154, (2RS,3R)-3-amino-4-cyclohexyl-N-(2,4-dichlorophenyl)-2-hydroxybutanamide] | 1900 | – |
| N[C@H](CC1CCCCC1)C(O)C(=O)NCCCN1CCCC1=O (mixture of isomers) [Example 102, (2RS,3R)-3-Amino-4-cyclohexyl-2-hydroxy-N-(3-(2-oxo-1-pyrrolidinyl)propyl)butanamide Hydrochloride] | 13000 | – |
| N[C@H](CC1CCCCC1)C(O)C(=O)NCCc1ccc(Br)cc1 (mixture of isomers) [Example 201, (2RS,3R)-3-amino-N-(4-bromophenethyl)-4-cyclohexyl-2-hydroxybutanamide Hydrochloride] | 710 | – |
| CC(CCc1ccccc1)NC(=O)C(O)[C@H](N)CC1CCCCC1 (mixture of isomers) [Example 209, (2RS,3R)-3-amino-4-cyclohexyl-2-hydroxy-N-(1-methyl-3-phenylpropyl)butanamide Hydrochloride] | 14000 | – |
| CSCC[C@@H](N)C(O)C(=O)NCCc1ccncc1 (mixture of isomers) [Example 19, (2RS,3R)-N-(2-(4-pyridyl)ethyl)-3-amino-2-hydroxy-5-(methylthio)pentanamide] | 1600 | – |
| N[C@H](CC1CCCCC1)C(O)C(=O)NC(CO)CO (mixture of isomers) [Example 136, (2RS,3R)-3-amino-4-cyclohexyl-2-hydroxy-N-(2-hydroxy-1-(hydroxymethyl)ethyl)butanamide trifluoroacetate] | 1800 | – |
| CC(=O)OC[C@@H](C)NC(=O)C(O)[C@H](N)CC1CCCCC1 (stereo partly drawn) [Example 52, (2RS,3R,2'R)-N-((2-acetoxypropyl)-3-amino-2-hydroxy-4-cyclohexyl)butanamidehydrochloride] | 6100 | – |
| N[C@H](CC1CCCCC1)C(O)C(=O)NC1CCCCCC1 (mixture of isomers) [Example 204, (2RS,3R)-3-amino-N-cycloheptyl-4-cyclohexyl-2-hydroxybutanamide Hydrochloride] | 3800 | – |
| CC(=O)OC[C@H](C)NC(=O)C(O)[C@H](N)CC1CCCCC1 (stereo partly shown) [Example 47] | 1500 | – |
| CCOC(=O)C1CCN(C(=O)C(O)[C@H](N)CC2CCCCC2)CC1 (stereo partly drawn) [Example 73, ((2RS,3R)-3-amino-2hydroxy-4-cyclohexyl)butanoyl-(ethylisonipecotate)amide hydrochloride] | 6800 | – |
| COc1cccc(CNC(=O)C(O)[C@H](N)CC2CCCCC2)c1 (mixture of isomers) [Example 189, (2RS,3R)-3-amino-4-cyclohexyl-2-hydroxy-N-(3-methoxybenzyl)butanamide hydrochloride] | 1500 | – |
| COc1ccc(CCNC(=O)C(O)[C@H](N)CCSC)cc1 (stereo partly drawn) [Example 27, (2RS,3R)-3-amino-2-hydroxy-N-(4-methoxyphenethyl)-5-(methylthio)pentanamidehydrochloride] | 1700 | – |
| CCOC(=O)CCCNC(=O)C(O)[C@H](N)CCSCC (mixture of isomers) [Example 16, (2RS,3R)-N-(3-(carboethoxy)propyl)-3-amino-2-hydroxy-5-(ethylthio)pentanamide hydrochloride] | 780 | – |
| CC(C)(C)c1ccc(COC(=O)[C@@H](CO)NC(=O)C(O)[C@H](N)CC2CCCCC2)cc1 (stereo partly drawn) [Example 137, 4-(tert-butyl)benzyl (2RS,3R,2'R)-2-((3-amino-4-cyclohexyl-2-hydroxybutanoyl)amino-3-hydroxypropanoate trifluoroacetate] | 8400 | – |
| N[C@H](CC1CCCCC1)C(O)C(=O)NCc1cccc2ccccc12 (stereo partly drawn) [Example 235, (2RS,3R)-3-amino-4-cyclohexyl-2-hydroxy-N-(1-napthylmethyl)butanamide Hydrochloride] | 970 | – |
| N[C@H](CC1CCCCC1)C(O)C(=O)NCCc1ccc(Oc2ccccc2)cc1 (mixture of isomers) [Example 168, (2RS,3R)-3-amino-4-cyclohexyl-2-hydroxy-N-(4-phenoxyphenethyl)butanamide hydrochloride] | 1500 | – |
| N[C@H](CC1CCCCC1)C(O)C(=O)NCCNc1ccc([N+](=O)[O-])cn1 (stereo partly drawn) [Example 57, (2RS,3R) N-(5-nitropyridyl-2-aminoethyl) 3-amino-2-hydroxy-4-cyclohexyl)butanamide dihydrochloride] | 3100 | – |
| N[C@H](CC1CCCCC1)C(O)C(=O)NC1C2CC3CC(C2)CC1C3 (mixture of isomers) [Example 203, (2RS,3R)-N-(2-adamantyl)-3-amino-4-cyclohexyl-2-hydroxybutanamide Hydrochloride] | 4900 | – |
| C[C@H](NC(=O)C(O)[C@H](N)CC1CCCCC1)C(=O)OCc1ccc(CC(=O)OCC(=O)c2ccccc2)cc1 (stereo partly drawn) [Example 96, (2RS,3R)-3-Amino-2-hydroxy-4-cyclohexyl)butanoyl-L-alanine-(4-(methyl)phenyl Acetic Acid Phenacyl Ester) Hydrochloride] | 2900 | – |
| CCCCCC(C)NC(=O)C(O)[C@H](N)CC1CCCCC1 (mixture of isomers) [Example 212, (2RS,3R)-3-amino-4-cyclohexyl-2-hydroxy-N-(1-methylhexyl)butanamide Hydrochloride] | 1700 | – |
| CSCC[C@@H](N)C(O)C(=O)NCCc1ccc(S(N)(=O)=O)cc1 (stereo partly drawn) [Example 9, (2RS,3R)-N-(2-(4-sulfonamidophenyl)ethyl)-3-amino-2-hydroxy-5-(methylthio)pentanamide hydrochloride] | 2300 | – |
| Cc1ncc([N+](=O)[O-])n1CCNC(=O)C(O)[C@H](N)CC1CCCCC1 (stereo partly drawn) [Example 56, (2RS,3R) N-(2-methyl-5-nitroimidazole-ethyl) 3-amino-2-hydroxy-4-cyclohexyl)butanamide dihydrochloride] | 12000 | – |
| CCOC(=O)CCCNC(=O)C(O)[C@H](N)CC1CCCCC1 (mixture of isomers) [Example 25, (2RS,3R)-N-(3-(carboethoxy)propyl)-3-amino-2-hydroxy-4-cyclohexyl-butanamide hydrochloride] | – | IC50 (recombinant MetAP2 4 μg/mL): 1900 nM |
| CC(C)OCCCNC(=O)C(O)[C@H](N)CC1CCCCC1 (mixture of isomers) [Example 213, (2RS,3R)-3-amino-4-cyclohexyl-2-hydroxy-N-(3-isopropoxypropyl)butanamide Hydrochloride] | 2600 | – |
| Cc1ccc(CCNC(=O)C(O)[C@H](N)CC2CCCCC2)cc1 (mixture of isomers) [Example 194, (2RS,3R)-3-amino-4-cyclohexyl-2-hydroxy-N-(4-methylphenethyl)butanamide hydrochloride] | 1400 | – |
